{"source": "patent US9725449B2", "about": "“Tricyclic compounds as anticancer agents” (BRISTOL-MYERS SQUIBB COMPANY, priority 2015, dated 2017)", "target": "BRD4 (Homo sapiens, UniProt O60885)", "experiment": "Time resolved fluorescence resonance energy transfer (TR-FRET) binding assay, bromodomain BRD4", "settings": "one of the FRET assays described; read-out: FRET BRD4 IC50"}
{"smiles": "[2H]C([2H])([2H])c1nnn(C)c1-c1cnc2c3cnc(Cl)cc3n([C@H](c3ncccc3F)C3CCOCC3)c2c1", "note": "(stereo in doubt) [Example 314, 11-Chloro-8-[(3-fluoropyridin-2-yl)(oxan-4-yl)methyl]-5-[4-(^2H3)methyl-1-methyl-1H-1,2,3-triazol-5-yl]-3,8,12-triazatricyclo[7.4.0.0^2,^7]trideca-1(9),2(7),3,5,10,12-hexaene]", "values": [{"measurement": "IC50", "result": "< 10", "unit": "nM"}]}
{"smiles": "Cc1nnn(C)c1-c1cnc2c3c(O)ncc(S(C)(=O)=O)c3n([C@H](c3ccccc3)C3CCOCC3)c2c1", "note": "[Example 93, 5-(Dimethyl-1H-1,2,3-triazol-5-yl)-10-methanesulfonyl-8-[(S)-oxan-4-yl(phenyl)methyl]-3,8,12-triazatricyclo[7.4.0.0^2,^7]trideca-1(13),2(7),3,5,9,11-hexaen-13-ol]", "values": [{"measurement": "IC50", "result": "< 10", "unit": "nM"}]}
{"smiles": "COc1nccc2c1c1ncc(-c3c(C)nnn3C)cc1n2[C@H](c1ccccc1F)C1CCOCC1", "note": "[Example 30, 5-(Dimethyl-1H-1,2,3-triazol-5-yl)-8-[(S)-(2-fluorophenyl)(oxan-4-yl)methyl]-13-methoxy-3,8,12-triazatricyclo[7.4.0.0^2,^7]trideca-1(9),2(7),3,5,10,12-hexaene]", "values": [{"measurement": "IC50", "result": "< 1", "unit": "nM"}]}
{"smiles": "[2H]C([2H])([2H])c1nnn(C)c1-c1cnc2c3c(OC)nc(Cl)cc3n([C@H](c3ncccc3F)C3CCOCC3)c2c1", "note": "[Example 305, 11-Chloro-8-[(S)-(3-fluoropyridin-2-yl)(oxan-4-yl)methyl]-13-methoxy-5-[4-(^2H3)methyl-1-methyl-1H-1,2,3-triazol-5-yl]-3,8,12-triazatricyclo[7.4.0.0^2,^7]trideca-1(9),2(7),3,5,10,12-hexaene]", "values": [{"measurement": "IC50", "result": "< 10", "unit": "nM"}]}
{"smiles": "Cc1nnn(C)c1-c1cnc2c3cc(S(C)(=O)=O)ncc3n([C@H](c3ccccc3F)C3CCOCC3)c2c1", "note": "[Example 32, 5-(Dimethyl-1H-1,2,3-triazol-5-yl)-8-[(S)-(2-fluorophenyl)(oxan-4-yl)methyl]-12-methanesulfonyl-3,8,11-triazatricyclo[7.4.0.0^2,^7]trideca-1(13),2(7),3,5,9,11-hexaene]", "values": [{"measurement": "IC50", "result": "< 10", "unit": "nM"}]}
{"smiles": "Cc1nnn(C)c1-c1cnc2c3c(S(C)(=O)=O)nccc3n([C@H](c3ccccc3)C3CCOCC3)c2c1", "note": "[Example 33, 5-(Dimethyl-1H-1,2,3-triazol-5-yl)-13-methanesulfonyl-8-[(S)-oxan-4-yl(phenyl)methyl]-3,8,12-triazatricyclo[7.4.0.0^2,^7]trideca-1(13),2(7),3,5,9,11-hexaene]", "values": [{"measurement": "IC50", "result": "< 1", "unit": "nM"}]}
{"smiles": "[2H]C([2H])([2H])c1nnn(C)c1-c1cnc2c3c(OC)nc(C(C)(C)O)cc3n(C(c3ccccc3)C3CCC(F)(F)CC3)c2c1", "note": "(centres unmarked) [Example 345, 2-{8-[(4,4-Difluorocyclohexyl)(phenyl)methyl]-13-methoxy-5-[4-(^2H3)methyl-1-methyl-1H-1,2,3-triazol-5-yl]-3,8,12-triazatricyclo[7.4.0.0^2,^7]trideca-1(13),2(7),3,5,9,11-hexaen-11-yl}propan-2-ol]", "values": [{"measurement": "IC50", "result": "< 1", "unit": "nM"}]}
{"smiles": "Cc1nnn(C)c1-c1cc2c(cn1)c1ncc(C(C)(C)O)cc1n2[C@H](c1ccccc1)C1CCOCC1", "note": "[Example 368]", "values": [{"measurement": "IC50", "result": "< 10", "unit": "nM"}]}
{"smiles": "Cc1nnn(C)c1-c1cnc2c3c(NS(C)(=O)=O)ncc(S(C)(=O)=O)c3n([C@H](c3ccccc3)C3CCOCC3)c2c1", "note": "[Example 105, N-[5-(Dimethyl-1H-1,2,3-triazol-5-yl)-10-methanesulfonyl-8-[(S)-oxan-4-yl(phenyl)methyl]-3,8,12-triazatricyclo[7.4.0.0^2,^7]trideca-1(13),2(7),3,5,9,11-hexaen-13-yl]methanesulfonamide]", "values": [{"measurement": "IC50", "result": "< 10", "unit": "nM"}]}
{"smiles": "[2H]C([2H])([2H])c1nnn(C)c1-c1cnc2c3cnc(OCC4CC4)cc3n([C@H](c3ccccc3)C3CCOCC3)c2c1", "note": "[Example 288, 11-(Cyclopropylmethoxy)-5-[4-(^2H3)methyl-1-methyl-1H-1,2,3-triazol-5-yl]-8-[(S)-oxan-4-yl(phenyl)methyl]-3,8,12-triazatricyclo[7.4.0.0^2,^7]trideca-1(9),2(7),3,5,10,12-hexaene]", "values": [{"measurement": "IC50", "result": "< 1", "unit": "nM"}]}
{"smiles": "Cc1nnn(C)c1-c1cnc2c3ccc(N4CC(C)S(=O)(=O)C(C)C4)nc3n([C@H](c3ccccc3)C3CCOCC3)c2c1", "note": "(single isomer, unassigned) [Example 191]", "values": [{"measurement": "IC50", "result": "< 1", "unit": "nM"}]}
{"smiles": "COc1ncc(Cl)c2c1c1ncc(-c3c(C)nnn3C)cc1n2[C@H](c1ccccc1)C1CCOCC1", "note": "[Example 40, 10-Chloro-5-(dimethyl-1H-1,2,3-triazol-5-yl)-13-methoxy-8-[(S)-oxan-4-yl(phenyl)methyl]-3,8,12-triazatricyclo[7.4.0.0^2,^7]trideca-1(13),2(7),3,5,9,11-hexaene]", "values": [{"measurement": "IC50", "result": "< 1", "unit": "nM"}]}
{"smiles": "CCOc1ncc(Cl)c2c1c1ncc(-c3c(C)nnn3C)cc1n2[C@H](c1ccccc1)C1CCOCC1", "note": "[Example 43, 10-Chloro-5-(dimethyl-1H-1,2,3-triazol-5-yl)-13-ethoxy-8-[(S)-oxan-4-yl(phenyl)methyl]-3,8,12-triazatricyclo[7.4.0.0^2,^7]trideca-1(13),2(7),3,5,9,11-hexaene]", "values": [{"measurement": "IC50", "result": "< 1", "unit": "nM"}]}
{"smiles": "[2H]C([2H])([2H])c1nnn(C)c1-c1cnc2c3ccc(N4C[C@@H](C)N[C@@H](C)C4)nc3n([C@H](c3ccccc3)C3CCOCC3)c2c1", "note": "[Example 252, 11-[(3R,5S)-3,5-Dimethylpiperazin-1-yl]-5-[4-(^2H3)methyl-1-methyl-1H-1,2,3-triazol-5-yl]-8-[(S)-oxan-4-yl(phenyl)methyl]-3,8,10-triazatricyclo[7.4.0.0^2,^7]trideca-1(13),2(7),3,5,9,11-hexaene]", "values": [{"measurement": "IC50", "result": "< 1", "unit": "nM"}]}
{"smiles": "Cc1noc(C)c1-c1cnc2c3c(OCC4CC4)ncc(S(C)(=O)=O)c3n([C@H](c3ccccc3)C3CCOCC3)c2c1", "note": "[Example 103, 13-(Cyclopropylmethoxy)-5-(dimethyl-1,2-oxazol-4-yl)-10-methanesulfonyl-8-[(S)-oxan-4-yl(phenyl)methyl]-3,8,12-triazatricyclo[7.4.0.0^2,^7]trideca-1(13),2(7),3,5,9,11-hexaene]", "values": [{"measurement": "IC50", "result": "< 10", "unit": "nM"}]}
{"smiles": "C=C(OCC)c1cc2c(cn1)c1ncc(-c3c(C)noc3C)cc1n2[C@H](c1ccc(F)cc1)C1CCOCC1", "note": "[Example 329, 5-(Dimethyl-1,2-oxazol-4-yl)-11-(1-ethoxyethenyl)-8-[(S)-(4-fluorophenyl)(oxan-4-yl)methyl]-3,8,12-triazatricyclo[7.4.0.0^2,^7]trideca-1(9),2(7),3,5,10,12-hexaene]", "values": [{"measurement": "IC50", "result": "< 10", "unit": "nM"}]}
{"smiles": "CC(=O)c1ccc2c3ncc(-c4c(C)nnn4C)cc3n([C@H](c3ccccc3)C3CCOCC3)c2n1", "note": "[Example 171, 1-[5-(Dimethyl-1H-1,2,3-triazol-5-yl)-8-[(S)-oxan-4-yl(phenyl)methyl]-3,8,10-triazatricyclo[7.4.0.0^2,^7]trideca-1(9),2(7),3,5,10,12-hexaen-11-yl]ethan-1-one]", "values": [{"measurement": "IC50", "result": "< 10", "unit": "nM"}]}
{"smiles": "[2H]C([2H])([2H])c1nnn(C)c1-c1cc2c(cn1)c1ncc(C(C)(C)O)cc1n2C(c1ncccc1F)C1CCOCC1", "note": "(single isomer, unassigned) [Example 366]", "values": [{"measurement": "IC50", "result": "< 10", "unit": "nM"}]}
{"smiles": "[2H]C([2H])([2H])c1nnn(C)c1-c1cnc2c3c(OCCO)ncc(S(C)(=O)=O)c3n([C@H](c3ccccc3F)C3CCOCC3)c2c1", "note": "[Example 63, 2-({8-[(S)-(2-Fluorophenyl)(oxan-4-yl)methyl]-10-methanesulfonyl-5-[4-(^2H3)methyl-1-methyl-1H-1,2,3-triazol-5-yl]-3,8,12-triazatricyclo[7.4.0.0^2,^7]trideca-1(13),2(7),3,5,9,11-hexaen-13-yl}oxy)ethan-1-ol]", "values": [{"measurement": "IC50", "result": "< 1", "unit": "nM"}]}
{"smiles": "[2H]C([2H])([2H])c1nnn(C)c1-c1cnc2c3c(OCC4CCCO4)ncc(S(C)(=O)=O)c3n([C@H](c3ccccc3)C3CCOCC3)c2c1", "note": "(stereo partly drawn) [Example 110, 10-Methanesulfonyl-5-[4-(^2H3)methyl-1-methyl-1H-1,2,3-triazol-5-yl]-8-[(S)-oxan-4-yl(phenyl)methyl]-13-[(2S)-oxolan-2-ylmethoxy]-3,8,12-triazatricyclo[7.4.0.0^2,^7]trideca-1(13),2(7),3,5,9,11-hexaene]", "values": [{"measurement": "IC50", "result": "< 10", "unit": "nM"}]}
{"smiles": "Cc1nnn(C)c1-c1cnc2c3ccc(N4CCC(S(C)(=O)=O)CC4)nc3n([C@H](c3ccccc3)C3CCOCC3)c2c1", "note": "[Example 192, 5-(Dimethyl-1H-1,2,3-triazol-5-yl)-11-(4-methanesulfonylpiperidin-1-yl)-8-[(S)-oxan-4-yl(phenyl)methyl]-3,8,10-triazatricyclo[7.4.0.0^2,^7]trideca-1(9),2(7),3,5,10,12-hexaene]", "values": [{"measurement": "IC50", "result": "< 1", "unit": "nM"}]}
{"smiles": "[2H]C([2H])([2H])c1nnn(C)c1-c1cnc2c3c(NCC(F)(F)F)cncc3n(C(c3ncccc3F)C3CCOCC3)c2c1", "note": "(centres unmarked) [Example 304, 8-[(3-Fluoropyridin-2-yl)(oxan-4-yl)methyl]-5-[4-(^2H3)methyl-1-methyl-1H-1,2,3-triazol-5-yl]-N-(2,2,2-trifluoroethyl)-3,8,11-triazatricyclo[7.4.0.0^2,^7]trideca-1(9),2(7),3,5,10,12-hexaen-13-amine]", "values": [{"measurement": "IC50", "result": "< 10", "unit": "nM"}]}
{"smiles": "Cc1nnn(C)c1-c1cnc2c3cc(C(C)(C)O)cnc3n([C@H](c3ccccc3)C3CCOCC3)c2c1", "note": "[Example 350, 2-[5-(Dimethyl-1H-1,2,3-triazol-5-yl)-8-[(S)-oxan-4-yl(phenyl)methyl]-3,8,10-triazatricyclo[7.4.0.0^2,^7]trideca-1(13),2(7),3,5,9,11-hexaen-12-yl]propan-2-ol]", "values": [{"measurement": "IC50", "result": "< 10", "unit": "nM"}]}
{"smiles": "COc1ccc2c3ncc(-c4c(C)nnn4C)cc3n(C(c3ccccc3F)C3CCOCC3)c2n1", "note": "(racemic) [Example 28, 5-(Dimethyl-1H-1,2,3-triazol-5-yl)-8-[(2-fluorophenyl)(oxan-4-yl)methyl]-11-methoxy-3,8,10-triazatricyclo[7.4.0.0^2,^7]trideca-1(13),2(7),3,5,9,11-hexaene]", "values": [{"measurement": "IC50", "result": "< 10", "unit": "nM"}]}
{"smiles": "[2H]C([2H])([2H])c1nnn(C)c1-c1cnc2c3ccc(C(C)(C)O)nc3n([C@H](c3ccccc3)C3CCOCC3)c2c1", "note": "[Example 175, 2-{5-[4-(^2H3)Methyl-1-methyl-1H-1,2,3-triazol-5-yl]-8-[(S)-oxan-4-yl(phenyl)methyl]-3,8,10-triazatricyclo[7.4.0.0^2,^7]trideca-1(9),2(7),3,5,10,12-hexaen-11-yl}propan-2-ol]", "values": [{"measurement": "IC50", "result": "< 10", "unit": "nM"}]}
{"smiles": "Cc1nnn(C)c1-c1cnc2c3ccnc(NCCO)c3n([C@H](c3ccccc3)C3CCOCC3)c2c1", "note": "[Example 11, 2-{[5-(Dimethyl-1H-1,2,3-triazol-5-yl)-8-[(S)-oxan-4-yl(phenyl)methyl]-3,8,11-triazatricyclo[7.4.0.0^2,^7]trideca-1(13),2(7),3,5,9,11-hexaen-10-yl]amino}ethan-1-ol]", "values": [{"measurement": "IC50", "result": "< 10", "unit": "nM"}]}
